Assay results published in patent US9944721B2, “Polysialic acid and use for treatment of neurodegenerative and neuroinflammatory diseases” (RHEINISCHE FRIEDRICH-WILHELMS UNIVERSITÄT BONN, priority 2013, dated 2018).

Assays:
Type in all cases: cell-based
[1] = tested on: human neurons co-cultured with LPS-pre-activated human microglia; experiment: LPS-toxin induced microglia-neuron co-culture Parkinson's disease model (neurite length); settings: 1.5 μM, 48 hours, without PSA-20 0.64+/−0.01, FIG. 9A
Experimental: Human induced pluripotent stem cell-derived microglia (iPSdM) were obtained from induced pluripotent stem (iPS) cells. The microglial iPSdM line 1 (iPSdM-1) was used in this study generated from the iLB-C-35m-r1 clone (Bonn). iPSdM-1 (here named microglia or microglial cells) were cultured in N2-medium consisting of DMEM/F12 culture medium (Gibco) supplemented with 1% N2 (Invitrogen), 0.48 mM L-glutamine (Gibco) and 100 μg/ml penicillin/streptomycin (Gibco). Human induced pluripotent stem (iPS) cells (Foreskin-1, WiCell) were used for the generation of primitive neural stem cell (pNSC) and their differentiation into neurons according to a modified protocol, which was used to obtain primitive neural precursors from human embryonic stem cells. Briefly, iPS cells were cultured on feeder cells to form small colonies. […]
10 pictures per condition per experiment were taken by confocal laser scanning microscopy (Fluoview 1000, Olympus). Measurement of neuronal branches was done by ImageJ/Neuron J software (NIH) and relative neural branches lengths were quantified. […]

[2] = tested on: human iPS cell derived neurons; experiment: MTT cell viability of human iPS cell derived neurons; settings: 24 hours
Experimental: Human induced pluripotent stem (iPS) cells (Foreskin-1, WiCell) were used for generation of primitive neural stem cell (pNSC) and their differentiation into neurons according to a modified protocol, which was described to obtain primitive neural precursors from human embryonic stem cells. Briefly, iPS cells were cultured on feeder cells to form small colonies. Next, medium was changed to neural stem cell medium (DMEM/F12:Neurobasal; GIBCO) in the presence of leukaemia inhibiting factor (LIF; Millipore, 10 ng/ml) and three small molecules CHIR99021 (inhibitor of GSK-30, Axon Medchem, […]) and SB431542 (inhibitor of TGF-β and activin receptors; Axon Medchem, 3 μM), and Compound E (inhibitor of γ-secretase; Axon Medchem, 0.1 μM) for 10 days. […]
Cell viability was determined by the (3-(4,5-Dimethylthiazol-2-yl)-2,5-diphenyltetrazolium bromide (MTT) assay (Millipore). Cells were treated for 24 hours with 5 nM, 15 nM, 50 nM, 150 nM, 500 nM, 1.5 μM, 5 μM, 15 μM, 50 μM or 150 μM of PSA-20. After 20 hours of stimulation, 10 μl of MTT-reagent was added and cells were cultured for another 4 hours. Then, cells were lysed with isopropanol containing 0.04 M HCl 1M to measure the dye formazan. The light absorbance of the purple formazan dye was determined by a spectrophotometer at a wavelength of 570 nm with a reference wavelength of 630 nm (Perkin Elmer, Envision Multiplate Reader). […]

[3] = tested on: human induced pluripotent stem cell derived microglia (iPSdM-1); experiment: Half maximum effective concentration for reduction of LPS-induced TNF-α gene transcript; settings: LPS 1 μg/ml, 24 hours
Experimental: Human induced pluripotent stem cell derived microglia (iPSdM) were obtained from iPS cells. iPSdM-1 line was used in this study generated from the iLB-C-35m-r1 clone (Bonn). iPSdM-1 (here named microglia or microglial cells) were culture in N2-medium consisting of DMEM/F12 culture medium (Gibco) supplemented with 1% N2 (Invitrogen), 0.48 mM L-glutamine (Gibco) and 100 μg/ml penicillin/streptomycin (Gibco). Cells were cultured with high density and split 1:5. After splitting, cells recovered and attached again to the new dishes.
Cells were treated for 24 hours with 1 μg/ml lipopolysaccharides (LPS) and 5 nM, 15 nM, 50 nM, 150 nM, 500 nM, 1.5 μM, 5 μM, 15 μM, 50 μM or 150 μM of PSA-20. For gene transcript analysis of TNF-α, RNA was collected from cells via the RNeasy kit system (Quiagen) Reverse transcription of the RNA was performed using Super Script II reverse transcriptase (Life Technologies) and hexamer random primers (Roche). Quantitative RT-PCR with specific oligonucleotides was performed with SYBR Green PCR Master Mix (Qiagen) using the ABI 5700 Sequence Detection System (PerkinElmer). The qRT-PCR was running for 40 cycles with a Tm of 60° C. using the same primer as for the PCR. The […] method with GAPDH as internal standard was performed for qRT-PCR quantification.

poly-(α(2→8)Neu5Ac)n [PSA-20]
relative neurite length [1]: 0.91+/−0.02
cell viability of human neurons (MTT) ([2]; 5 nM to 150 μM, FIG. 10A): not reduced
neuronal cell viability (MTT) ([2]; 150 μM): no interference
concentration reducing the LPS-induced gene transcription of TNF-α ([3]; FIG. 10B): ≥ 0.05 µM
EC50 ([3]; read-out: EC50 in human microglia (reduction of LPS-induced TNF-α gene transcript by 50%)): 90 nM
